The text below walks through data of patent publication US20230357166A1, “PIPERAZINE-BASED CATIONIC LIPIDS” (TRANSLATE BIO, INC., priority 2020, published 2023).

The test system of this assay is male CD1 mice. The experiment in a line: Delivery of Firefly Luciferase (FFL) mRNA by intratracheal administration of lipid nanoparticles. Format: in vivo. To be noted: lipid nanoparticles (Process A) with FFL mRNA, cationic lipid, DMG-PEG2000, cholesterol and DOPE (40:5:25:30 or 45:5:20:30 mol %); single intratracheal aerosol administration; IVIS imaging approximately 24 hours post-dose; FIG. 1. The method, then:
One exemplary process for lipid nanoparticle formulation is Process A of WO 2018/089801 (see, e.g., Example 1 and FIG. 1 of WO 2018/089801). Process A (“A”) relates to a conventional method of encapsulating mRNA by mixing mRNA with a mixture of lipids, without first pre-forming the lipids into lipid nanoparticles. In an exemplary process, an ethanol lipid solution and an aqueous buffered solution of mRNA were prepared separately. A solution of mixture of lipids (cationic lipid, helper lipids, zwitterionic lipids, PEG lipids etc.) was prepared by dissolving lipids in ethanol. The mRNA solution was prepared by dissolving the mRNA in citrate buffer. Then, these two solutions were mixed using a pump system. In some instances, the two solutions were mixed using a gear pump system. In certain embodiments, the two solutions were mixing using a ‘T’ junction (or “Y” junction). The mixture was then purified by diafiltration with a TFF process. The resultant formulation concentrated and stored at 2-8° C. until further use.
Lipid nanoparticle formulations prepared using Process A comprising FFL mRNA, cationic lipid, DMG-PEG2000, cholesterol and DOPE (40:5:25:30 or 45:5:20:30 mol % ratio) were administered to male CD1 mice (6-8 weeks old) by a single intratracheal aerosol administration via a Microsprayer® (50 ul/animal) while under anesthesia. At approximately 24 hours post-dose, the animals were dosed with luciferin at 150 mg/kg (60 mg/ml) by intraperitoneal injection at 2.5 ml/kg. After 5-15 minutes, all animals were imaged using an IVIS imaging system to measure luciferase production in the lung.
Regarding `CCCCCCCCOC(=O)CCN(CCCCC(=O)OCCN1CC(C)N(CCOC(=O)CCCCN(CCC(=O)OCCCCCCCC)CCC(=O)OCCCCCCCC)CC1C)CCC(=O)OCCCCCCCC` (stereo not shown) [Compound D21], the “in vivo protein production (FFL protein; luciferase production in the lung)” value is “high levels of in vivo protein production”.
With `CC(C)CCCCCCCOC(=O)CCN(CCCCC(=O)OCCN1CC(C)N(CCOC(=O)CCCCN(CCC(=O)OCCCCCCCC(C)C)CCC(=O)OCCCCCCCC(C)C)CC1C)CCC(=O)OCCCCCCCC(C)C` (stereo not shown) [Compound D23] the entry was “high levels of in vivo protein production”; with `CCCCCCCCC(O)CN(CCCCC(=O)OCCN1CC(C)N(CCOC(=O)CCCCN(CC(O)CCCCCCCC)CC(O)CCCCCCCC)CC1C)CC(O)CCCCCCCC` (stereo not shown) [Compound A17], “high levels of in vivo protein production”.
For `CCCCC/C=C\C/C=C\CCCCCCC(O)CN(CCCC(=O)OCCN1CC(C)N(CCOC(=O)CCCN(CC(O)CCCCCC/C=C\C/C=C\CCCCC)CC(O)CCCCCC/C=C\C/C=C\CCCCC)CC1C)CC(O)CCCCCC/C=C\C/C=C\CCCCC` (stereo not shown) [Compound A15], the “in vivo protein production (FFL protein; luciferase production in the lung)” value is “high levels of in vivo protein production”.
With `CCCCCCCCC(O)CN(CCCCC(=O)SCCN1CC(C)N(CCSC(=O)CCCCN(CC(O)CCCCCCCC)CC(O)CCCCCCCC)CC1C)CC(O)CCCCCCCC` (stereo not shown) [Compound C17] the entry was “high levels of in vivo protein production”; with `CCCCCCCCC(O)CN(CCCC(=O)SCCN1CC(C)N(CCSC(=O)CCCN(CC(O)CCCCCCCC)CC(O)CCCCCCCC)CC1C)CC(O)CCCCCCCC` (stereo not shown) [Compound C9], “high levels of in vivo protein production”.
With `CCCCCCCCCCCCC(O)CN(CCCCC(=O)OCCN1CC(C)N(CCOC(=O)CCCCN(CC(O)CCCCCCCCCCCC)CC(O)CCCCCCCCCCCC)CC1C)CC(O)CCCCCCCCCCCC` (stereo not shown) [Compound A19] the entry was “high levels of in vivo protein production”; with `CCCCCCCCCCC(O)CN(CCCCC(=O)OCCN1CC(C)N(CCOC(=O)CCCCN(CC(O)CCCCCCCCCC)CC(O)CCCCCCCCCC)CC1C)CC(O)CCCCCCCCCC` (stereo not shown) [Compound A18], “high levels of in vivo protein production”; with `CCCCCCCCC(O)CN(CCCC(=O)OCCN1CC(C)N(CCOC(=O)CCCN(CC(O)CCCCCCCC)CC(O)CCCCCCCC)CC1C)CC(O)CCCCCCCC` (stereo not shown) [Compound A9], “high levels of in vivo protein production”.
Under `CCCCCCCCCCCCC(O)CN(CCCC(=O)OCCN1CC(C)N(CCOC(=O)CCCN(CC(O)CCCCCCCCCCCC)CC(O)CCCCCCCCCCCC)CC1C)CC(O)CCCCCCCCCCCC` (stereo not shown) [Compound A11] stands “high levels of in vivo protein production”.
